{"source": "patent US4536335A", "about": "“Carbapenem antibiotics” (Bristol-Myers Company, priority 1983, dated 1985)", "key": {"S. pneumoniae A-9585": {"tested_on": "S. pneumoniae A-9585", "experiment": "In vitro MIC, tube dilution", "type": "cell-based", "settings": "Streptococcus pneumoniae, A9585, Nutrient Broth, overnight incubation at 37° C., additional data table"}, "S. pyogenes A-9604": {"tested_on": "S. pyogenes A-9604", "experiment": "In vitro MIC, tube dilution", "type": "cell-based", "settings": "Streptococcus pyogenes, A9604, tube dilution, Nutrient Broth, overnight incubation at 37° C.; additional data table"}, "S. aureus A-9537": {"tested_on": "S. aureus A-9537", "experiment": "In vitro MIC, tube dilution", "type": "cell-based", "settings": "Staphylococcus aureus, overnight incubation at 37° C., additional data table"}, "[1]": {"tested_on": "S. aureus A-9606 (Pen-res.)", "experiment": "In vitro MIC, tube dilution", "type": "cell-based", "settings": "Staphylococcus aureus, Nutrient Broth, overnight incubation at 37° C., additional data table, read-out: MIC S. aureus (Pen-res.) A-9606"}, "S. faecalis A20688": {"tested_on": "S. faecalis A20688", "experiment": "In vitro MIC, tube dilution", "type": "cell-based", "settings": "Enterococcus faecalis, A20688, tube dilution, Nutrient Broth, overnight incubation at 37° C.; additional data table"}, "E. coli A15119": {"tested_on": "E. coli A15119", "experiment": "In vitro MIC, tube dilution", "type": "cell-based", "settings": "Escherichia coli, A15119, tube dilution, Nutrient Broth, overnight incubation at 37° C.; additional data table"}, "E. coli A20341-1": {"tested_on": "E. coli A20341-1", "experiment": "In vitro MIC, tube dilution", "type": "cell-based", "settings": "Escherichia coli, A203411, tube dilution, Nutrient Broth, overnight incubation at 37° C.; additional data table"}, "K. pneumoniae A-9664": {"tested_on": "K. pneumoniae A-9664", "experiment": "In vitro MIC, tube dilution", "type": "cell-based", "settings": "Klebsiella pneumoniae, A9664, tube dilution, Nutrient Broth, overnight incubation at 37° C.; additional data table"}, "K. pneumoniae A20468": {"tested_on": "K. pneumoniae A20468", "experiment": "In vitro MIC, tube dilution", "type": "cell-based", "settings": "Klebsiella pneumoniae, A20468, tube dilution, Nutrient Broth, overnight incubation at 37° C.; additional data table"}, "P. mirabilis A-9900": {"tested_on": "P. mirabilis A-9900", "experiment": "In vitro MIC, tube dilution", "type": "cell-based", "settings": "Proteus mirabilis, A9900, tube dilution, Nutrient Broth, overnight incubation at 37° C.; additional data table"}, "P. vulgaris A21559": {"tested_on": "P. vulgaris A21559", "experiment": "In vitro MIC, tube dilution", "type": "cell-based", "settings": "Proteus vulgaris, A21559, tube dilution, Nutrient Broth, overnight incubation at 37° C.; additional data table"}, "P. morganii A15153": {"tested_on": "P. morganii A15153", "experiment": "In vitro MIC, tube dilution", "type": "cell-based", "settings": "Morganella morganii, A15153, tube dilution, Nutrient Broth, overnight incubation at 37° C.; additional data table; read-out: MIC M. morganii A15153"}, "P. rettgeri A22424": {"tested_on": "P. rettgeri A22424", "experiment": "In vitro MIC, tube dilution", "type": "cell-based", "settings": "Providencia rettgeri, A22424, tube dilution, Nutrient Broth, overnight incubation at 37° C.; additional data table"}, "S. marcescens A20019": {"tested_on": "S. marcescens A20019", "experiment": "In vitro MIC, tube dilution", "type": "cell-based", "settings": "Serratia marcescens, A20019, tube dilution, Nutrient Broth, overnight incubation at 37° C.; additional data table"}, "E. cloacae A-9656": {"tested_on": "E. cloacae A-9656", "experiment": "In vitro MIC, tube dilution", "type": "cell-based", "settings": "Enterobacter cloacae, A9656, tube dilution, Nutrient Broth, overnight incubation at 37° C.; additional data table"}, "P. aeruginosa A-9843A": {"tested_on": "P. aeruginosa A-9843A", "experiment": "In vitro MIC, tube dilution", "type": "cell-based", "settings": "Pseudomonas aeruginosa, A9843A, Nutrient Broth, overnight incubation at 37° C., additional data table"}, "P. aeruginosa A21213": {"tested_on": "P. aeruginosa A21213", "experiment": "In vitro MIC, tube dilution", "type": "cell-based", "settings": "Pseudomonas aeruginosa, A21213, tube dilution, Nutrient Broth, overnight incubation at 37° C.; additional data table"}, "E. cloacae A-9659": {"tested_on": "E. cloacae A-9659", "experiment": "In vitro MIC, tube dilution", "type": "cell-based", "settings": "Enterobacter cloacae, A9659, tube dilution, Nutrient Broth, overnight incubation at 37° C.; additional data table", "text": "N-formimidoyl thienamycin was included as a comparison compound."}, "[2]": {"experiment": "Blood levels in mice after intramuscular administration", "type": "in vivo", "settings": "mouse, blood, im, 20 mg/kg, intramuscular dose of 20 mg/kg", "text": "Compounds were solubilized in 0.1 M phosphate buffer pH 7. Values are fro\na single test; 4 mice used per compound.\n*t1/2 refers to halflife in minutes\n**AUC refers to the area under the blood concentrationtime curve\n(§1) Also shown is the urinary recovery in the mice.\nCompounds were solubilized in 0.1 M phosphate buffer, pH 7.\nValues based on a single test; 4 mice per compound.\n*T1/2 refers to halflife in minutes"}, "[3]": {"experiment": "Urinary recovery after intramuscular administration to mice", "type": "in vivo", "settings": "mouse, urine, im, 20 mg/kg, intramuscular dose of 20 mg/kg, 0-6 hour collection, read-out: Urine Recovery", "description": "Compounds were solubilized in 0.1 M phosphate buffer pH 7. Values are from a single test; 4 mice per compound.\nas §1\n***Recovery based on 0-6 hour collection"}, "[4]": {"experiment": "Half-life in phosphate buffer solution", "type": "physicochemical", "settings": "phosphate buffer, read-out: t1/2 (solution stability) (converted)", "description": "A solution of para-nitrobenzyl 3-[2-(N-methylthiomorpholinium diphenylphosphate)ethylthio]-6α-[1'-(R)-hydroxyethyl]-7-oxo-1-azabicyclo[3.2.0]hept-2-ene-2-carboxylate (1.31 g, 1.76 mmol) in 0.1 M pH 7.4 phosphate buffer (48.8 mL), tetrahydrofuran (20 mL) and diethyl ether (20 mL) was hydrogenated over 10% pd/C (1.5 g) in a Parr shaker for 1 h at 40 psi. The reaction mixture was diluted with diethyl ether (40 mL) and the phases were separated. The organic phase was washed with water (2×5 mL). The aqueous phases were combined, filtered through a #52 hardened filter paper, washed with diethyl ether (2×20 mL) and pumped under vacuum. The aqueous solution was poured on a silica gel reverse phase column and the desired carbapenem was eluted with 5% acetonitrile-water.\nTo a solution of p-nitrobenzyl (5R,6S)-3-[2-(1-methylmorpholino)ethylthio]-6-[(R)-1-hydroxyethyl]-7-oxo-1-azabicyclo[3.2.0]hept-2-ene-2-carboxylate diphenylphosphate (0.360 g, 0.49 mmol) in 13 mL of phosphate buffer (0.05 M pH 7.4) was added 0.36 g of 10% palladium-on-charcoal, 20 mL of tetrahydrofuran and 20 mL of diethyl ether. This mixture was hydrogenated (Parr) at 32 psi for 1 h. The mixture was filtered through Celite and the filter pad was washed with H2 O and diethyl ether. The aqueous phase was separated and the pH was adjusted to 7.0 with additional pH 7.4 phosphate buffer. After removing residual organic solvents in vacuo the aqueous solution was applied to a C18 reverse-phase column.\nTo a solution of (5R,6S)paranitrobenzyl 3-[2-(1,4-dimethyl-1-piperazinium)ethylthio]-6-[1-(R)-hydroxyethyl]-7-oxo- 1-azabicyclo[3.2.0]hept-2-ene-2-carboxylate diphenylphosphate (0.47 g, 0.623 mmol) in wet tetrahydrofuran (25 mL) was added diethyl ether (25 mL), potassium phosphate monobasic-sodium hydroxide buffer (13 mL, pH 7.22) and 10% palladium on charcoal (0.47 g). The resulting mixture was hydrogenated at 23° C. under 40 psi for 1 h. The two layers were separated and the organic layer was extracted with water (2×7 mL).\nTo a cold (-10° C.) solution of (5R,6S)-3-[2 -(N-methyl-thiomorpholinium)ethylthio]-6-[1-(R)-hydroxyethyl]-7-oxo-1-azabicyclo(3.2.0)-hept-2-ene-2-carboxylate (608 mg, 1.65 mmol) in a 1:1 mixture of acetonitrile-water (9 mL) was added m-chloroperbenzoic acid (334.8 mg, 1.65 mmol) in small portion over a 1 hour period. The mixture was then diluted with water (15 mL) and washed with diethyl ether (3×15 mL).\nA mixture of (5R,6S) paranitrobenzyl 3-[2-(1,4,4-trimethyl-1-piperazinium)ethylthio]-6-[1R-hydroxyethyl]-7-oxo- 1-azabicyclo(3.2.0)hept-2-ene-2-carboxylate bischloride (0.40 g, 0.68 mmol), phosphate buffer (30 mL, 0.05M, pH 7.0), tetrahydrofuran (10 mL), ether (30 mL) and 10% palladium on charcoal (0.40 g) was hydrogenated at 23° C. under 35 psi for 1 h. The two phases were separated. The organic phase was extracted with water (10 mL)."}}, "note": "Read-outs that look alike come from different tables or passages of the source.", "data": [{"smiles": "C[C@@H](O)[C@H]1C(=O)N2C(C(=O)[O-])=C(SCC[N+]3(C)CCOCC3)C[C@H]12", "note": "[Example 3, (5R,6S)-3-[2-(1-methylmorpholino)ethylthio]-6-[(R)-1-hydroxyethyl]-7-oxo-1-azabicyclo[3.2.0]hept-2-ene-2-carboxylate]", "values": [{"measurement": "MIC", "setting": "S. pneumoniae A-9585", "result": 0.03, "unit": "µg/mL"}, {"measurement": "MIC", "setting": "S. pyogenes A-9604", "result": 0.03, "unit": "µg/mL"}, {"measurement": "MIC", "setting": "S. aureus A-9537; A9537, 50% serum, tube dilution, read-out: MIC S. aureus-50% serum A-9537", "result": 0.13, "unit": "µg/mL"}, {"measurement": "MIC", "setting": "S. aureus A-9537; A9537, tube dilution, Nutrient Broth, read-out: MIC S. aureus A-9537", "result": 0.03, "unit": "µg/mL"}, {"measurement": "MIC", "setting": "[1]", "result": 0.03, "unit": "µg/mL"}, {"measurement": "MIC", "setting": "S. faecalis A20688", "result": 0.5, "unit": "µg/mL"}, {"measurement": "MIC", "setting": "E. coli A15119", "result": 0.03, "unit": "µg/mL"}, {"measurement": "MIC", "setting": "E. coli A20341-1", "result": 0.03, "unit": "µg/mL"}, {"measurement": "MIC", "setting": "K. pneumoniae A-9664", "result": 0.13, "unit": "µg/mL"}, {"measurement": "MIC", "setting": "K. pneumoniae A20468", "result": 0.25, "unit": "µg/mL"}, {"measurement": "MIC", "setting": "P. mirabilis A-9900", "result": 0.13, "unit": "µg/mL"}, {"measurement": "MIC", "setting": "P. vulgaris A21559", "result": 0.03, "unit": "µg/mL"}, {"measurement": "MIC", "setting": "P. morganii A15153", "result": 0.13, "unit": "µg/mL"}, {"measurement": "MIC", "setting": "P. rettgeri A22424", "result": 0.5, "unit": "µg/mL"}, {"measurement": "MIC", "setting": "S. marcescens A20019", "result": 0.06, "unit": "µg/mL"}, {"measurement": "MIC", "setting": "E. cloacae A-9656", "result": 0.5, "unit": "µg/mL"}, {"measurement": "MIC", "setting": "P. aeruginosa A-9843A", "result": 63, "unit": "µg/mL"}, {"measurement": "MIC", "setting": "P. aeruginosa A21213", "result": 8, "unit": "µg/mL"}, {"measurement": "MIC", "setting": "E. cloacae A-9659", "result": 0.25, "unit": "µg/mL"}, {"measurement": "Cmax", "setting": "[2]", "result": 16200, "unit": "ng/mL"}, {"measurement": "AUC", "setting": "[2]; read-out: Blood AUC", "result": 4800, "unit": "ng·h/mL"}, {"measurement": "half-life", "setting": "[2]; read-out: Blood T1/2", "result": 8, "unit": "min"}, {"measurement": "dose excreted at 6 h", "setting": "[3]", "result": "15 ± 3", "unit": "%"}, {"measurement": "half-life", "setting": "[4]; pH 7.4, pH 7.4, 36.8° C.", "result": 18.5, "unit": "h"}]}, {"smiles": "C[C@@H](O)[C@H]1C(=O)N2C(C(=O)O)=C(SCC[N+]3(C)CC[N+](C)(C)CC3)C[C@H]12", "note": "[Example 6, (5R,6S)-3-[2-(1,4,4-Trimethyl-1-piperazinium)-ethylthio]-6-(1R-hydroxyethyl]-7-oxo-1-azabicyclo(3.2.0)hept-2-ene-2-carboxylate chloride]", "values": [{"measurement": "half-life", "setting": "[4]; pH 7.4, concentration of 10^-4 M in phosphate buffer pH 7.4 at 36.8° C.", "result": 9.8, "unit": "h"}]}]}
